Experimental data reported in US20220177508A1, “C10-Cyclic Substituted 13-Membered Macrolides and Uses Thereof” (Zikani Therapeutics, Inc., priority 2018, published 2022).
Values after ≈ are worked out from the molar mass of the structure shown. Read-outs that look alike come from different tables or passages of the source.

Legend:
Type in all cases: cell-based
S. aureus MP-12 = test: Broth dilution MIC determination (CLSI), S. aureus MP-12; settings: Staphylococcus aureus, MP12; strain MP-12, broth dilution
E. coli MP-4 = test: Broth dilution MIC determination (CLSI), E. coli MP-4; settings: Escherichia coli
K. pneumoniae MP-546 = test: Broth dilution MIC determination (CLSI), K. pneumoniae MP-546; settings: Klebsiella pneumoniae, MP546; strain MP-546, broth dilution
P. aeruginosa MP-3 = test: Broth dilution MIC determination (CLSI), P. aeruginosa MP-3; settings: Pseudomonas aeruginosa, MP3; strain MP-3, broth dilution
A. baumannii MP-15 = test: Broth dilution MIC determination (CLSI), A. baumannii MP-15; settings: Acinetobacter baumannii, MP15; strain MP-15, broth dilution; read-out: MIC A. baumanii MP-15
[1] = MP4, strain MP-4, broth dilution, read-out: MIC E. coli MP-4

| Structure (SMILES) | MIC (S. aureus MP-12) | MIC (E. coli MP-4; [1]) | MIC (K. pneumoniae MP-546) | MIC (P. aeruginosa MP-3) | MIC (A. baumannii MP-15) | MIC (E. coli MP-4; MP4, read-out: MIC E. coli MP-4) |
| --- | --- | --- | --- | --- | --- | --- |
| CO[C@]1(C)C[C@@H](C)CN(C)[C@H](C2CN(C(=O)CN3CC(F)(F)C3)C2)COC(=O)C(C)(C)C(=O)[C@H](C)[C@H]1O[C@@H]1O[C@H](C)C[C@H](N(C)C)[C@H]1O [Compound 154, (3R,6R,8R,9R,10R)-3-(1-(2-(3,3-difluoroazetidin-1-yl)acetyl)azetidin-3-yl)-9-(((2S,3R,4S,6R)-4-(dimethylamino)-3-hydroxy-6-methyltetrahydro-2H-pyran-2-yl)oxy)-8-methoxy-4,6,8,10,12,12-hexamethyl-1-oxa-4-azacyclotridecane-11,13-dione] | 4 to 32 mg/L (≈ 5.81 to 46.5 µM) | < 4 mg/L | 4 to 32 mg/L (≈ 5.81 to 46.5 µM) | > 32 mg/L | > 32 mg/L | – |
| CO[C@]1(C)C[C@@H](C)CN(C)[C@H](C2CN(CC=C(C)C)C2)COC(=O)C(C)(C)C(=O)[C@H](C)[C@H]1O[C@@H]1O[C@H](C)C[C@H](N(C)C)[C@H]1O [Compound 155, (3R,6R,8R,9R,10R)-9-(((2S,3R,4S,6R)-4-(dimethylamino)-3-hydroxy-6-methyltetrahydro-2H-pyran-2-yl)oxy)-8-methoxy-4,6,8,10,12,12-hexamethyl-3-(1-(3-methylbut-2-en-1-yl)azetidin-3-yl)-1-oxa-4-azacyclotridecane-11,13-dione] | 4 to 32 mg/L (≈ 6.41 to 51.3 µM) | – | < 4 mg/L | > 32 mg/L | 4 to 32 mg/L (≈ 6.41 to 51.3 µM) | < 4 mg/L |
| CCN(C)[C@H]1CC[C@H]([C@H]2COC(=O)C(C)(C)C(=O)[C@H](C)[C@@H](O[C@@H]3O[C@H](C)C[C@H](N(C)C)[C@H]3O)[C@](C)(OC)C[C@@H](C)CN2C)CC1 [Compound 157, (3S,6R,8R,9R,10R)-9-(((2S,3R,4S,6R)-4-(dimethylamino)-3-hydroxy-6-methyltetrahydro-2H-pyran-2-yl)oxy)-3-((1r,4S)-4-(ethyl(methyl)amino)cyclohexyl)-8-methoxy-4,6,8,10,12,12-hexamethyl-1-oxa-4-azacyclotridecane-11,13-dione] | > 32 mg/L | 4 to 32 mg/L (≈ 6.25 to 50 µM) | 4 to 32 mg/L (≈ 6.25 to 50 µM) | > 32 mg/L | > 32 mg/L | – |
| CO[C@]1(C)C[C@@H](C)CN(C)[C@H](C2CN(C(=O)CC(C)(C)CN(C)CC(C)C)C2)COC(=O)C(C)(C)C(=O)[C@H](C)[C@H]1O[C@@H]1O[C@H](C)C[C@H](N(C)C)[C@H]1O [Compound 167, (3R,6R,8R,9R,10R)-9-(((2S,3R,4S,6R)-4-(dimethylamino)-3-hydroxy-6-methyltetrahydro-2H-pyran-2-yl)oxy)-3-(1-(4-(isobutyl(methyl)amino)-3,3-dimethylbutanoyl)azetidin-3-yl)-8-methoxy-4,6,8,10,12,12-hexamethyl-1-oxa-4-azacyclotridecane-11,13-dione] | 4 to 32 mg/L (≈ 5.41 to 43.3 µM) | < 4 mg/L | 4 to 32 mg/L (≈ 5.41 to 43.3 µM) | > 32 mg/L | > 32 mg/L | – |
| CO[C@]1(C)C[C@@H](C)CN(C)[C@H](C2CC3CCC(C2)N3C(C)C)COC(=O)C(C)(C)C(=O)[C@H](C)[C@H]1O[C@@H]1O[C@H](C)C[C@H](N(C)C)[C@H]1O (stereo partly drawn) [Compound 170, (3R,6R,8R,9R,10R)-9-(((2S,3R,4S,6R)-4-(dimethylamino)-3-hydroxy-6-methyltetrahydro-2H-pyran-2-yl)oxy)-3-(8-isopropyl-8-azabicyclo[3.2.1]octan-3-yl)-8-methoxy-4,6,8,10,12,12-hexamethyl-1-oxa-4-azacyclotridecane-11,13-dione] | 4 to 32 mg/L (≈ 6.14 to 49.1 µM) | 4 to 32 mg/L (≈ 6.14 to 49.1 µM) | 4 to 32 mg/L (≈ 6.14 to 49.1 µM) | > 32 mg/L | > 32 mg/L | – |
| CO[C@]1(C)C[C@@H](C)CN(C)[C@H](C2CN(Cc3cn(C)cn3)C2)COC(=O)C(C)(C)C(=O)[C@H](C)[C@H]1O[C@@H]1O[C@H](C)C[C@H](N(C)C)[C@H]1O [Compound 173, (3R,6R,8R,9R,10R)-9-(((2S,3R,4S,6R)-4-(dimethylamino)-3-hydroxy-6-methyltetrahydro-2H-pyran-2-yl)oxy)-8-methoxy-4,6,8,10,12,12-hexamethyl-3-(1-((1-methyl-1H-imidazol-4-yl)methyl)azetidin-3-yl)-1-oxa-4-azacyclotridecane-11,13-dione] | > 32 mg/L | 4 to 32 mg/L (≈ 6.16 to 49.2 µM) | > 32 mg/L | > 32 mg/L | > 32 mg/L | – |
| CO[C@]1(C)C[C@@H](C)CN(C(C)=O)[C@H](C2CCN(C(C)C)CC2)COC(=O)C(C)(C)C(=O)[C@H](C)[C@H]1O[C@@H]1O[C@H](C)C[C@H](N(C)C)[C@H]1O [Compound 174, (3R,6R,8R,9R,10R)-4-Acetyl-9-(((2S,3R,4S,6R)-4-(dimethylamino)-3-hydroxy-6-methyltetrahydro-2H-pyran-2-yl)oxy)-3-(1-isopropylpiperidin-4-yl)-8-methoxy-6,8,10,12,12-pentamethyl-1-oxa-4-azacyclotridecane-11,13-dione] | > 32 mg/L | > 32 mg/L | > 32 mg/L | > 32 mg/L | > 32 mg/L | – |
| CO[C@]1(C)C[C@@H](C)CN(C)[C@H](C2CCN(Cc3nccn3C)CC2)COC(=O)C(C)(C)C(=O)[C@H](C)[C@H]1O[C@@H]1O[C@H](C)C[C@H](N(C)C)[C@H]1O [Compound 179, (3R,6R,8R,9R,10R)-9-(((2S,3R,4S,6R)-4-(dimethylamino)-3-hydroxy-6-methyltetrahydro-2H-pyran-2-yl)oxy)-8-methoxy-4,6,8,10,12,12-hexamethyl-3-(1-((1-methyl-1H-imidazol-2-yl)methyl)piperidin-4-yl)-1-oxa-4-azacyclotridecane-11,13-dione] | 4 to 32 mg/L (≈ 5.9 to 47.2 µM) | < 4 mg/L | 4 to 32 mg/L (≈ 5.9 to 47.2 µM) | > 32 mg/L | > 32 mg/L | – |
| CO[C@]1(C)C[C@@H](C)CN(C)[C@@H]([C@H]2CC[C@H](N(C)C(=O)CNC3CC3)CC2)COC(=O)C(C)(C)C(=O)[C@H](C)[C@H]1O[C@@H]1O[C@H](C)C[C@H](N(C)C)[C@H]1O [Compound 180, 2-(cyclopropylamino)-N-((1S,4r)-4-((3S,6R,8R,9R,10R)-9-(((2S,3R,4S,6R)-4-(dimethylamino)-3-hydroxy-6-methyltetrahydro-2H-pyran-2-yl)oxy)-8-methoxy-4,6,8,10,12,12-hexamethyl-11,13-dioxo-1-oxa-4-azacyclotridecan-3-yl)cyclohexyl)-N-methylacetamide] | > 32 mg/L | 4 to 32 mg/L (≈ 5.64 to 45.1 µM) | > 32 mg/L | > 32 mg/L | > 32 mg/L | – |

Second part, led by results:

| MIC (S. aureus MP-12) | MIC (E. coli MP-4; [1]) | MIC (K. pneumoniae MP-546) | MIC (P. aeruginosa MP-3) | MIC (A. baumannii MP-15) | Structure (SMILES) | MIC (E. coli MP-4; MP4, read-out: MIC E. coli MP-4) |
| --- | --- | --- | --- | --- | --- | --- |
| > 32 mg/L | 4 to 32 mg/L (≈ 5.86 to 46.9 µM) | > 32 mg/L | > 32 mg/L | > 32 mg/L | CO[C@]1(C)C[C@@H](C)CN(C)[C@H](C2CCN(C(=O)CN(C)C)CC2)[C@H](C)OC(=O)C(C)(C)C(=O)[C@H](C)[C@H]1O[C@@H]1O[C@H](C)C[C@H](N(C)C)[C@H]1O [Compound 159, (2S,3R,6R,8R,9R,10R)-9-(((2S,3R,4S,6R)-4-(dimethylamino)-3-hydroxy-6-methyltetrahydro-2H-pyran-2-yl)oxy)-3-(1-(dimethylglycyl)piperidin-4-yl)-8-methoxy-2,4,6,8,10,12,12-heptamethyl-1-oxa-4-azacyclotridecane-11,13-dione] | – |
| > 32 mg/L | < 4 mg/L | < 4 mg/L | > 32 mg/L | > 32 mg/L | CO[C@]1(C)C[C@@H](C)CN(C)[C@H]([C@H]2CCN(C)C2)COC(=O)C(C)(C)C(=O)[C@H](C)[C@H]1O[C@@H]1O[C@H](C)C[C@H](N(C)C)[C@H]1O [Compound 166, (3R,6R,8R,9R,10R)-9-(((2S,3R,4S,6R)-4-(Dimethylamino)-3-hydroxy-6-methyltetrahydro-2H-pyran-2-yl)oxy)-8-methoxy-4,6,8,10,12,12-hexamethyl-3-((S)-1-methylpyrrolidin-3-yl)-1-oxa-4-azacyclotridecane-11,13-dione] | – |
| 4 to 32 mg/L (≈ 6.11 to 48.9 µM) | < 4 mg/L | 4 to 32 mg/L (≈ 6.11 to 48.9 µM) | > 32 mg/L | > 32 mg/L | CO[C@]1(C)C[C@@H](C)CN(C)[C@@H]([C@@H]2CCN(C(=O)CN(C)C)C2)COC(=O)C(C)(C)C(=O)[C@H](C)[C@H]1O[C@@H]1O[C@H](C)C[C@H](N(C)C)[C@H]1O [Compound 169, (3S,6R,8R,9R,10R)-9-(((2S,3R,4S,6R)-4-(Dimethylamino)-3-hydroxy-6-methyltetrahydro-2H-pyran-2-yl)oxy)-3-((R)-1-(dimethylglycyl)pyrrolidin-3-yl)-8-methoxy-4,6,8,10,12,12-hexamethyl-1-oxa-4-azacyclotridecane-11,13-dione] | – |
| > 32 mg/L | 4 to 32 mg/L (≈ 6.69 to 53.5 µM) | 4 to 32 mg/L (≈ 6.69 to 53.5 µM) | > 32 mg/L | > 32 mg/L | CO[C@]1(C)C[C@@H](C)CN(C)[C@H]([C@H]2CCCN(C)C2)COC(=O)C(C)(C)C(=O)[C@H](C)[C@H]1O[C@@H]1O[C@H](C)C[C@H](N(C)C)[C@H]1O [Compound 171, (3R,6R,8R,9R,10R)-9-(((2S,3R,4S,6R)-4-(dimethylamino)-3-hydroxy-6-methyltetrahydro-2H-pyran-2-yl)oxy)-8-methoxy-4,6,8,10,12,12-hexamethyl-3-((S)-1-methylpiperidin-3-yl)-1-oxa-4-azacyclotridecane-11,13-dione] | – |
| 4 to 32 mg/L (≈ 6.54 to 52.3 µM) | < 4 mg/L | < 4 mg/L | > 32 mg/L | > 32 mg/L | CCN1CCC([C@H]2COC(=O)C(C)(C)C(=O)[C@H](C)[C@@H](O[C@@H]3O[C@H](C)C[C@H](N(C)C)[C@H]3O)[C@](C)(OC)C[C@@H](C)CN2C)CC1 [Compound 175, (3S,6R,8R,9R,10R)-9-(((2S,3R,4S,6R)-4-(dimethylamino)-3-hydroxy-6-methyltetrahydro-2H-pyran-2-yl)oxy)-3-(1-ethylpiperidin-4-yl)-8-methoxy-4,6,8,10,12,12-hexamethyl-1-oxa-4-azacyclotridecane-11,13-dione] | – |
